Test results published in patent publication US20110251289A1, “NEW COMPOUNDS FOR THE TREATMENT OF CANCER” (CSIR, priority 2008, published 2011).
In brackets after ≈: the same amount, converted by molar mass.

What was measured:
Format in all cases: cell-based
human lymphocytes = experiment: toxicity to human lymphocytes (IC50); conditions: Lymphocyte
[1] = test system: Bordetella bronchiseptica; experiment: growth inhibition of bacterial cells
From the text: (§1) This selective inhibition of the growth of eukaryotes versus prokaryotes is a useful characteristic of the compound.

[2] = test system: Staphylococcus intermedius; experiment: growth inhibition of bacterial cells; conditions: Staphylococcus intermedius (3 strains)
From the text: as §1

Pasteurella haemolytica = experiment: growth inhibition of bacterial cells
From the text: as §1

[3] = test system: Sphingobacterium spritivorum; experiment: growth inhibition of bacterial cells
From the text: as §1

Actinomyces pyogenes = experiment: growth inhibition of bacterial cells
From the text: as §1

[4] = test system: Selenastrum capricornumtum; experiment: algal growth inhibition test; conditions: 1 mM to 0.063 mM, 72 hrs exposure, optical density relative to control
Description: The algal (Selenastrum capricornumtum) growth inhibition test involves exposing the unicellular algae to the toxicant for 72 hrs, under defined conditions: at a temperature of 24° C. and in a test facility fitted with a cool white fluorescent light with a light intensity of ±4000 lux. The test facility is free of vapour, odours and dust which may be toxic to the algae.
Growth inhibition is measured as a reduction in growth rate relative to the control and is determined in terms of optical density. Definitive tests (testing serial dilutions) are carried out. The percentage growth inhibition in each test is usually reported as Effect or the 72 hr EC20 or EC50.

HeLa cancer cells = experiment: activity against HeLa cancer cells (toxicity, IC50)
[5] = test system: MCF cells (breast cancer cells); experiment: MTT cytotoxicity assay, MCF cells; conditions: 200 μM, 48 h
Description: (§2) In addition, when HeLa and MCF cells (breast cancer cells) were exposed to 200 μM pavetamine for 48 h, 30% cell death occurred for HeLa cells and 25% for the MCF cells. The MTT (3-(4,5-dimethyl-2-thiazolyl)-2,5-diphenyl-2H-tetrazolium bromide) assay (Sigma, St Louis, USA) was used to measure the cytotoxicity of pavettamine in these cell lines.

HeLa cells = experiment: MTT cytotoxicity assay, HeLa cells; conditions: 200 μM, 48 h
Description: as §2

Rhodotorula mucilaginosa = experiment: growth inhibition of fungal and yeast cells
From the text: as §1

Aspergillus clavatus = experiment: growth inhibition of fungal and yeast cells
From the text: as §1

Debaryomyces hansenii = experiment: growth inhibition of fungal and yeast cells
From the text: as §1

Penicillium expansum = experiment: growth inhibition of fungal and yeast cells
From the text: as §1

NC[C@@H](O)C[C@@H](O)CNC[C@H](O)C[C@H](O)CN [pavettamine, (2S,4R,8R,10S)-1,11-diamino-6-aza-undecane-2,4,8,10-tetraol]
IC50 (human lymphocytes): 2 µg/mL (≈ 7.96 µM)
inhibitory activity towards growth of bacterial cells [1]: no inhibitory activity
inhibitory activity towards growth of bacterial cells [2]: no inhibitory activity
inhibitory activity towards growth of bacterial cells (Pasteurella haemolytica): no inhibitory activity
inhibitory activity towards growth of bacterial cells [3]: no inhibitory activity
inhibitory activity towards growth of bacterial cells (Actinomyces pyogenes): no inhibitory activity
growth inhibition of algae [4]: ≥ 98%
times more toxic to HeLa cancer cells than to human lymphocytes (HeLa cancer cells; HeLa cancer cells versus human lymphocytes): 10 ×
IC50 (HeLa cancer cells; Homo sapiens, HeLa): 0.2 µg/mL (≈ 0.796 µM)
cell death, MCF cells [5]: 25%
cell death, HeLa cells (HeLa cells): 30%
inhibitory activity towards growth of fungal and yeast cells (Rhodotorula mucilaginosa): inhibitory activity
inhibitory activity towards growth of fungal and yeast cells (Aspergillus clavatus): inhibitory activity
inhibitory activity towards growth of fungal and yeast cells (Debaryomyces hansenii): inhibitory activity
inhibitory activity towards growth of fungal and yeast cells (Penicillium expansum): inhibitory activity
